Measured values taken from paper PMC9537572, “Elucidation of the binding mechanism of astragaloside IV derivative with human serum albumin and its cardiotoxicity in zebrafish embryos” (Frontiers in Pharmacology, 2022).
Several values for one entry are separate records, joined by “and”; a condition that tells them apart may be missing. Equal entries are not always repeated.

Key:
mice = conditions: even at high treatment doses, ref Qing et al., 2019, Sun et al.; cited from earlier work
zebrafish embryos [1] = experiment: Astemizole-induced cardiotoxicity in zebrafish embryos: heart rate and SV-BA spacing; type: in vivo; conditions: 4 µM astemizole; for Heart rate (beats/min) (Mean±SE) / SV-BA spacing (µm) (Mean±SE): n = 10
Description: A total of 270 wild-type AB zebrafish at 3 dpf were randomly selected, and 30 zebrafish were plated in each well of a six-well plates. The concentrations of LS-102 were 27.8, 83.3 and 250 µg/ml, AGS IV was 250 µg/mL. A normal control group (fish culture water) and a 4 µM astemizole model control group were also established. Ten zebrafish were randomly selected from each group, and the heart rate and venous sinus-to-arterial bulb distance (SV-BA) of zebrafish were observed under a dissecting microscope after 2 h, 6 h and 24 h of LS-102 and AGS IV treatment. Images were collected by photographing, and the ameliorative effect of LS-102 and AGS IV on astemizole-induced cardiotoxicity in zebrafish was evaluated by the statistical significance of the heart rate and the SV-BA interval index.

zebrafish embryos [2] = experiment: Maximum tolerated concentration of LS-102 in zebrafish; type: in vivo; conditions: for Mortality: 3 dpf zebrafish, n=30; for Deaths: of 30 zebrafish
Description: Zebrafish embryos at 3 dpf were randomly selected and treated with LS-102 at concentrations of 1, 10, 100, 250 and 500 μg/ml in water, while the control group was left untreated. The mortality of zebrafish was recorded for each experimental group after 24 h of treatment.

zebrafish = experiment: Arachidonic acid-induced thrombosis in zebrafish; type: in vivo; conditions: for Staining intensity of cardiac red blood cells (pixels) (mean ± se): 3 h pretreatment, arachidonic acid 1.5 h, n = 10; for Antithrombotic effect (%): vs. model group, arachidonic acid-induced thrombosis
Description: A total of 270 melanin allele mutant translucent albino strain zebrafish at 3 dpf were randomly selected, with 30 zebrafish per well in six-well plates. The concentrations of LS-102 were 6.25, 12.5, 25, 50, and 100 µg/ml, while that of AGS IV was 100 µg/ml, and the positive control drug aspirin was 25 µg/ml. After treatment with LS-102 and AGS IV for 3 h, arachidonic acid aqueous solution was administered for 1.5 h to induce a thrombosis model in zebrafish in all experimental groups except the normal group. After staining with o-anisidine, zebrafish were randomly selected from each experimental group and observed under a dissecting microscope and photographed. Data were collected to qualitatively evaluate thrombosis in zebrafish, and the intensity of cardiac erythrocyte staining (length of venous thrombus vs. number of cardiac erythrocytes) in zebrafish was analyzed and counted to establish, the preventive effect of LS-102 and AGS IV with aspirin on thrombosis in zebrafish. The formula was calculated as follows:
Thromboprophylactic effect (%) = S (drug administration group)−S (model group)/S (nomal control group)−S (model group)×100%

HSA [3] = target: T1, HSA (Homo sapiens, UniProt P02768); experiment: Plasma protein binding rate by equilibrium dialysis and UHPLC-MS/MS; type: in vitro ADME
T1 sequence (P02768 25-609): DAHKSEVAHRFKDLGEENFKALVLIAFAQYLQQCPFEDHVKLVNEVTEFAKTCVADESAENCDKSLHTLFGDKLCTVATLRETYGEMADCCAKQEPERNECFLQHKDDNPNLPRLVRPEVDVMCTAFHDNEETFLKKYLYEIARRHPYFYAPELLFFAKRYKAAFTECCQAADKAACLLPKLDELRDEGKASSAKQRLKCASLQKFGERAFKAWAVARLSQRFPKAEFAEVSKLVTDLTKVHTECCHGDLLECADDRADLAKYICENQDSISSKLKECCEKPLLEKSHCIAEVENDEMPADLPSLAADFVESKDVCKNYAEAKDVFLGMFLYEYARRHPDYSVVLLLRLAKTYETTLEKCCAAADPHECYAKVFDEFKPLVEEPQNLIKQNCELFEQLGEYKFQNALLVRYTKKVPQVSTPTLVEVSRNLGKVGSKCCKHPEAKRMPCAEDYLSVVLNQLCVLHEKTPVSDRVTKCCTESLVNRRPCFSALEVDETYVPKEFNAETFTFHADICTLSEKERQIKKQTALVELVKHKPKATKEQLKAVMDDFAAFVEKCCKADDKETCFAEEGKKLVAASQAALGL
Description: The binding rate of AGS IV/LS-102 and HSA was determined using a slightly modified equilibrium dialysis method ([Metsu et al., 2020]). […] The stock solutions of HSA (0.5 ml) and drug group (0.5 ml) were placed in a dialysis membrane bag that was ligated at both ends and then immersed in a test tube filled with 50 ml of PBS solution for 72 h at 4 °C. After equilibrium, a 0.5-ml solution of outer dialysate and internal dialysate was collected into a 2-ml EP tube, and 10 µL IS (digoxin, 0.1 mg/ml) solution was added to each tube. Both samples were added to 1.5 ml of acetonitrile and vortexed for 3 min, and then the samples were separated via centrifugation at 18,000 × g for 20 min. The supernatants were transferred to another EP tube and dried under a nitrogen stream. The residue was redissolved in 1 ml methanol, sonicated for 2 min, vortexed for 3 min, and centrifuged at 18,000 × g for 10 min. The supernatant was filtered with a 0.22 µm microporous syringe filter in a 2 ml sample vial, and 1 µL was injected into the UHPLC-MS/MS system for analysis. The plasma protein binding rate was calculated according to the following formula ([Talbert et al., 2002]): Plasma binding rate=Internal drug concentration−External drug concentration/Initial drug concentration ×100%

HSA [4] = target: T1, HSA; experiment: Site marker competitive experiments (warfarin, ibuprofen) by equilibrium dialysis; type: in vitro ADME; conditions: drug 0.476 mg/ml, n = 3, read-out: Plasma protein binding (converted)
Description: The site marker competitive experiments were performed using two classical site probes, warfarin and ibuprofen, which were selected as the markers of subdomain IIA (site I) and subdomain IIIA (site II) separately of HAS ([Ghuman et al., 2005]). The procedure was consistent with the method described in section 2.5, except that the concentrations of AGS IV and LS-102 were both fixed at 0.476 mg/ml, while the external dialysis solution was changed to contain the probe with a final concentration of 0, 0.06, 0.3, 1.2 mg/ml PBS solution. Briefly, the AGS IV/LS-102 HSA mixture (0.5 ml drug and 0.5 ml HSA) was separately incubated with three different concentrations of probe to evaluate the effects of warfarin or ibuprofen on drug-protein binding influence. Three replicates of each concentration were prepared. After equilibrium dialysis, the internal and external dialysates were analyzed by UHPLC-MS/MS.

CC(C)(O)C1CCC(C)(C2C(O)CC3(C)C4CC(OC5OC(C(=O)O)C(O)C(O)C5O)C5C(C)(C)C(OC6OCC(O)C(O)C6O)CCC56CC46CCC23C)O1 (stereo not shown) [LS-102, astragalosidic acid]
Abnormalities or death in mice (in words) (mice): no abnormalities or death | Heart rate (beats/min) (Mean±SE) (zebrafish embryos [1]; 27.8 µg/ml, 2 h): 156 ± 1 beats/min | SV-BA spacing (µm) (Mean±SE) (zebrafish embryos [1]; 27.8 µg/ml, 2 h): 179 ± 7 µm | Heart rate (beats/min) (Mean±SE) (zebrafish embryos [1]; 27.8 µg/ml, 6 h): 158 ± 1 beats/min | SV-BA spacing (µm) (Mean±SE) (zebrafish embryos [1]; 27.8 µg/ml, 6 h): 204 ± 6 µm | Heart rate (beats/min) (Mean±SE) (zebrafish embryos [1]; 27.8 µg/ml, 24 h): 45 ± 23 beats/min | SV-BA spacing (µm) (Mean±SE) (zebrafish embryos [1]; 27.8 µg/ml, 24 h): 250 ± 6 µm | Heart rate (beats/min) (Mean±SE) (zebrafish embryos [1]; 83.3 µg/ml, 2 h): 157 ± 2 beats/min | SV-BA spacing (µm) (Mean±SE) (zebrafish embryos [1]; 83.3 µg/ml, 2 h): 157 ± 3 µm | Heart rate (beats/min) (Mean±SE) (zebrafish embryos [1]; 83.3 µg/ml, 6 h): 153 ± 1 beats/min | SV-BA spacing (µm) (Mean±SE) (zebrafish embryos [1]; 83.3 µg/ml, 6 h): 168 ± 4 µm | Heart rate (beats/min) (Mean±SE) (zebrafish embryos [1]; 83.3 µg/ml, 24 h): 128 ± 21 beats/min | SV-BA spacing (µm) (Mean±SE) (zebrafish embryos [1]; 83.3 µg/ml, 24 h): 228 ± 7 µm | Heart rate (beats/min) (Mean±SE) (zebrafish embryos [1]; 250 µg/ml, 2 h): 160 ± 1 beats/min | SV-BA spacing (µm) (Mean±SE) (zebrafish embryos [1]; 250 µg/ml, 2 h): 151 ± 3 µm | Heart rate (beats/min) (Mean±SE) (zebrafish embryos [1]; 250 µg/ml, 6 h): 167 ± 1 beats/min | SV-BA spacing (µm) (Mean±SE) (zebrafish embryos [1]; 250 µg/ml, 6 h): 158 ± 6 µm | Heart rate (beats/min) (Mean±SE) (zebrafish embryos [1]; 250 µg/ml, 24 h): 162 ± 7 beats/min | SV-BA spacing (µm) (Mean±SE) (zebrafish embryos [1]; 250 µg/ml, 24 h): 174 ± 9 µm | Effect on astemizole-induced heart rate slowing and SV-BA spacing increase (in words) (zebrafish embryos [1]; 2 h and 6 h, 27.8, 83.3 and 250 µg/ml): improved the slowed heart rate and increased the SV-BA spacing | Effect on astemizole-induced heart rate slowing and SV-BA spacing increase (in words) (zebrafish embryos [1]; 24 h): improved the slowed heart rate at 250 µg/ml and the increase in SV-BA spacing at 83.3 and 250 µg/ml | Mortality (zebrafish embryos [2]; 1 µg/mL, 24 h): 0% | Deaths (zebrafish embryos [2]; 1 µg/mL, 24 h): 0 tails | Mortality (zebrafish embryos [2]; 10 µg/mL, 24 h): 0% | Deaths (zebrafish embryos [2]; 10 µg/mL, 24 h): 0 tails | Mortality (zebrafish embryos [2]; 100 µg/mL, 24 h): 0% | Deaths (zebrafish embryos [2]; 100 µg/mL, 24 h): 0 tails | Mortality (zebrafish embryos [2]; 250 µg/mL, 24 h): 13.3% | Deaths (zebrafish embryos [2]; 250 µg/mL, 24 h): 4 tails | Mortality (zebrafish embryos [2]; 500 µg/mL, 24 h): 100% | Deaths (zebrafish embryos [2]; 500 µg/mL, 24 h): 30 tails | Mortality (in words) (zebrafish embryos [2]; concentrations ranging from 1 to 100 µg/ml, 24 h): no mortality | Maximum-tolerated concentration (MTC) (zebrafish embryos [2]; zebrafish 3 dpf, 24 h treatment): 100 µg/mL | Staining intensity of cardiac red blood cells (pixels) (mean ± se) (zebrafish; 6.25 µg/ml): 1280 pixels and 1280 ± 119 pixels | Antithrombotic effect (%) (zebrafish; 6.25 µg/ml): −13% | Staining intensity of cardiac red blood cells (pixels) (mean ± se) (zebrafish; 12.5 µg/ml): 1521 pixels and 1521 ± 72 pixels | Antithrombotic effect (%) (zebrafish; 12.5 µg/ml): 14% | Staining intensity of cardiac red blood cells (pixels) (mean ± se) (zebrafish; 25 µg/ml): 1597 pixels and 1597 ± 65 pixels | Antithrombotic effect (%) (zebrafish; 25 µg/ml): 22% | Staining intensity of cardiac red blood cells (pixels) (mean ± se) (zebrafish; 50 µg/ml): 1796 pixels and 1796 ± 54 pixels | Antithrombotic effect (%) (zebrafish; 50 µg/ml): 44% | Staining intensity of cardiac red blood cells (pixels) (mean ± se) (zebrafish; 100 µg/ml): 1950 pixels and 1950 ± 33 pixels | Antithrombotic effect (%) (zebrafish; 100 µg/ml): 61% | Plasma protein binding rate, range over the concentrations (HSA [3]; across the three concentrations (0.238-0.714 mg/ml)): 68.24%–69.35 | fraction unbound at 72 h (HSA [3]; human, plasma, across the three concentrations (0.238-0.714 mg/ml), read-out: Plasma protein binding rate, range over the concentrations): 0.306 to 0.331 | fraction unbound at 72 h, 0.238 mg/ml (HSA [3]; human, drug 0.238 mg/ml, equilibrium dialysis 72 h at 4 °C, n = 3, read-out: Protein binding rate (%, Mean±SD) (converted)): 0.318 | fraction unbound at 72 h, 0.476 mg/ml (HSA [3]; human, drug 0.476 mg/ml, equilibrium dialysis 72 h at 4 °C, n = 3, read-out: Protein binding rate (%, Mean±SD) (converted)): 0.306 | fraction unbound at 72 h, 0.714 mg/ml (HSA [3]; human, drug 0.714 mg/ml, equilibrium dialysis 72 h at 4 °C, n = 3, read-out: Protein binding rate (%, Mean±SD) (converted)): 0.314 | fraction unbound at 72 h, 0.476 mg/ml (HSA [4]; with ibuprofen 0.06 mg/ml): 0.368 | fraction unbound at 72 h, 0.476 mg/ml (HSA [4]; with ibuprofen 0.3 mg/ml): 0.248 | fraction unbound at 72 h, 0.476 mg/ml (HSA [4]; with ibuprofen 1.2 mg/ml): 0.28 | fraction unbound at 72 h, 0.476 mg/ml (HSA [4]; with warfarin 0.06 mg/ml): 0.467 | fraction unbound at 72 h, 0.476 mg/ml (HSA [4]; with warfarin 0.3 mg/ml): 0.411 | fraction unbound at 72 h, 0.476 mg/ml (HSA [4]; with warfarin 1.2 mg/ml): 0.453 | fraction unbound at 72 h, 0.476 mg/ml (HSA [4]; without site markers): 0.331
